Source: ChEMBL document CHEMBL1129114, “Bioactive hydroxyethylene dipeptide isosteres with hydrophobic (P3-P1)-moieties. A novel strategy towards small non-peptide renin inhibitors” (Bioorg Med Chem Lett, 1996)

Target: T1, Renin (Homo sapiens, UniProt P00797)
T1 sequence (P00797 whole entry): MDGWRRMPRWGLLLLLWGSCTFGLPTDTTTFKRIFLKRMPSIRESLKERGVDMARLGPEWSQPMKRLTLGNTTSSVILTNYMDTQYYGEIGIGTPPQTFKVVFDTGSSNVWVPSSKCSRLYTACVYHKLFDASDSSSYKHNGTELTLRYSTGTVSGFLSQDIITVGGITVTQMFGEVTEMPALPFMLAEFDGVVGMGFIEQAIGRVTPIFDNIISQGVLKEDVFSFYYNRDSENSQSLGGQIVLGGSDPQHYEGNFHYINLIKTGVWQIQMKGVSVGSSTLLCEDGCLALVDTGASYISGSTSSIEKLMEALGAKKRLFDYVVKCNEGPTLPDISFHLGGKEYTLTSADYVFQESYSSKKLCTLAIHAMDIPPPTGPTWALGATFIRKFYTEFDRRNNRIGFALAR
Assay: In vitro binding affinity was tested against purified human renin at pH 7.2

SMILES: CCCCNC(=O)[C@H](C)C[C@H](O)[C@@H](N)C[C@@H]1CCC[C@H](CCCC(C)(C)C)C1
- IC50: 2.9 µM

SMILES: CCCCNC(=O)[C@H](C)C[C@H](O)[C@@H](N)CC(C)(C)CCc1cccc2ccccc12
- IC50: 0.7 µM

SMILES: CCCCNC(=O)[C@H](C)C[C@H](O)[C@@H](N)Cc1cccc(CCCC(C)(C)C)c1
- IC50: 13 µM

SMILES: CCCCNC(=O)[C@H](C)C[C@H](O)[C@@H](N)CC(CC)(CC)CCc1cccc2ccccc12
- IC50: 2.7 µM

SMILES: CCCCNC(=O)[C@H](C)C[C@H](O)[C@@H](N)CC1CCCCC1
- IC50: 30 µM

SMILES: CCCCNC(=O)[C@H](C)C[C@H](O)[C@@H](N)CC1CCCC(CCCC(C)(C)C)C1 (stereo partly specified)
- IC50: 0.8 µM

SMILES: CCCCNC(=O)[C@H](C)C[C@H](O)[C@@H](N)CC(C)(C)CCc1ccc(CO)cc1
- IC50: 79 µM

SMILES: CCCCNC(=O)[C@H](C)C[C@H](O)[C@@H](N)CC(C)(C)CCCc1cccc2ccccc12
- IC50: 2.1 µM

SMILES: CCCCNC(=O)[C@H](C)C[C@H](O)[C@@H](N)CC(C)(C)CCc1ccc(CO)c2ccccc12
- IC50: 10 µM

SMILES: CCCCNC(=O)[C@H](C)C[C@H](O)[C@@H](N)CC(C)(C)CCc1ccc2ccccc2c1
- IC50: 3 µM

SMILES: CCCCNC(=O)[C@H](C)C[C@H](O)[C@@H](N)CC(C)C
- IC50: > 100 µM

SMILES: CCCCNC(=O)[C@H](C)C[C@H](O)[C@@H](N)C[C@H]1CC[C@H](CCCC(C)(C)C)CC1
- IC50: 4.3 µM

SMILES: CCCCNC(=O)[C@H](C)C[C@H](O)[C@@H](N)CC(C)(C)CCc1cccc(CO)c1
- IC50: 58 µM

SMILES: CCCCNC(=O)[C@H](C)C[C@H](O)[C@@H](N)CC(C)(C)CCCc1ccc2ccccc2c1
- IC50: 3.7 µM

SMILES: CCCCNC(=O)[C@H](C)C[C@H](O)[C@@H](N)Cc1ccc(OCc2ccccc2)cc1
- IC50: 32 µM

SMILES: CCCCNC(=O)[C@H](C)C[C@H](O)[C@@H](N)C[C@@H]1CCC[C@@H](CCCC(C)(C)C)C1
- IC50: 0.3 µM
